Where two headings read alike, the source gives them in different places.
Molecular target: canine TRPM8 (Canis lupus familiaris, UniProt Q1A7N1)
Assay: In Vitro Canine TRPM8 Functional Assay (Ca2+ fluorescence, icilin activation)
Format: cell-based
Conditions: for IC50: read-out: IC50; for inhibition at 0.2 µM: read-out: % Inh @ 0.2; for inhibition at 0.5 µM: compound at 0.5 μM, read-out: % Inh @ 0.5
Outline: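 HEK293 cells stably expressing canine TRPM8 were loaded with Calcium 3 dye (35 min at 37 °C, then 25 min at room temperature). Compound was added and Ca2+ fluorescence was read for 5 min before icilin at a concentration giving about 80% maximal response. EC50/IC50 came from eight-point dose-response curves, quadruplicate wells.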

[1] = HEK293 cells stably expressing canine TRPM8, icilin activation, eight-point dose-response
[2] = compound at 0.2 μM, canine TRPM8, icilin activation
[3] = 0.2 μM compound, HEK293 cells stably expressing canine TRPM8, icilin activation
[4] = canine TRPM8, icilin activation

Sequence of canine TRPM8 (Q1A7N1 1-1104): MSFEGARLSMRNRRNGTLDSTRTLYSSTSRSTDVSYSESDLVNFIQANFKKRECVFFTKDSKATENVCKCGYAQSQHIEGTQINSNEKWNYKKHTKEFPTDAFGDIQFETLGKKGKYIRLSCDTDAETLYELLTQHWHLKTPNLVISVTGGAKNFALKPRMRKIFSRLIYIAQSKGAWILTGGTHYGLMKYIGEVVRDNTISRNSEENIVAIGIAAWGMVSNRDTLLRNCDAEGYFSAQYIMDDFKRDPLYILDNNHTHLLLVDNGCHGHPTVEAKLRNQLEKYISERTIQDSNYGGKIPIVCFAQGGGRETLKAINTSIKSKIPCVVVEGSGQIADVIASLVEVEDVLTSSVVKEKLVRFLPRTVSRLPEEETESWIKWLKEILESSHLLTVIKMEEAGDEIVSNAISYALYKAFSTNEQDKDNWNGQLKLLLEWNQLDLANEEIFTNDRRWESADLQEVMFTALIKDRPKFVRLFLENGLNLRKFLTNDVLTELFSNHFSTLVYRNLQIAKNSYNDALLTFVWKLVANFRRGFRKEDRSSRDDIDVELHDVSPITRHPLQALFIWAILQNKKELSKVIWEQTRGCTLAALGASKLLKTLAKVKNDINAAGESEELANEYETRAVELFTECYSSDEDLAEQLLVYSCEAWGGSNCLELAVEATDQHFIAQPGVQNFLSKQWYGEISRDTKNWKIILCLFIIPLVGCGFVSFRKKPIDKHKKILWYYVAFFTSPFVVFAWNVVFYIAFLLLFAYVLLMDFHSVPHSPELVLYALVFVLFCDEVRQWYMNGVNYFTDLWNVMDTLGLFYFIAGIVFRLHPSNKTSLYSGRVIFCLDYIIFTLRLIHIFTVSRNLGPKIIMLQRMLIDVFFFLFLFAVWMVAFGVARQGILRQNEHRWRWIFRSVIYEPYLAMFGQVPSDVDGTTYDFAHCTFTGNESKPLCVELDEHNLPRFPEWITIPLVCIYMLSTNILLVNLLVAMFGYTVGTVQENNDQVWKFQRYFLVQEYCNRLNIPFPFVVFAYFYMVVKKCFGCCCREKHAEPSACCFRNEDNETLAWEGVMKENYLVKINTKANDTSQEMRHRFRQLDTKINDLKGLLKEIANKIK

| Compound | IC50 [1] | inhibition at 0.2 µM [2] | other results |
| --- | --- | --- | --- |
| CN(C)S(=O)(=O)c1cccc(S(=O)(=O)N(Cc2ccc(F)c(C(F)(F)F)c2)c2cc3ccccc3s2)c1 [Compound 462, N-(Benzo[b]thiophen-2-yl)-N-(4-fluoro-3-trifluoromethyl-benzyl)-3-N′,N′-dimethylsulfamoyl-benzenesulfonamide] |  |  | % Inh @ 0.2 (μM) [2]: 22% |
| Cc1c(N(CCCCC(F)(F)F)S(=O)(=O)c2ccc(-c3n[nH]c(=O)[nH]3)cc2)sc2ccccc12 [Compound 811, N-(3-Methyl-benzo[b]thiophen-2-yl)-N-(5,5,5-trifluoro-pentyl)-4-(5-oxo-4,5-dihydro-1H-[1,2,4]triazol-3-yl)-benzenesulfonamide] |  |  | inhibition at 0.2 µM [3]: 103%; IC50 (HEK293 cells stably expressing canine TRPM8, icilin activation, average of two or more determinations): 3.7 nM |
| CCS(=O)(=O)N(Cc1ccc(F)c(F)c1)c1sc2ccccc2c1C [Compound 41, N-(3,4-Difluoro-benzyl)-N-(3-methyl-benzo[b]thiophen-2-yl)-ethanesulfonamide] | 5.4 nM |  | inhibition at 0.5 µM [4]: 99% |
| O=C1CCCN1CCN(c1sc2ccccc2c1Cl)S(=O)(=O)c1ccccc1 [Compound 82, N-(3-Chloro-benzo[b]thiophen-2-yl)-N-[2-(2-oxo-pyrrolidin-1-yl)-ethyl]-benzenesulfonamide] | 319 nM |  | inhibition at 0.5 µM [4]: 87% |
| O=S1NC(c2ccc(S(=O)(=O)N(CCC3CC3)c3sc4ccccc4c3Br)cc2)=NO1 (stereo not shown) [Compound 624, N-(3-Bromo-benzo[b]thiophen-2-yl)-N-(cyclopropyl-ethyl)-4-(3H-[1,2,3,5]oxathiadiazole-2-oxide)-benzenesulfonamide] | 13.4 nM |  | % Inh @ 0.2 (μM) [2]: 103% |
| O=S(=O)(c1ccccc1)N(Cc1cccnc1)c1sc2ccccc2c1Br [Compound 169, N-(3-Bromo-benzo[b]thiophen-2-yl)-N-(pyridin-3-ylmethyl)-benzenesulfonamide] | 21.4 nM |  | inhibition at 0.5 µM [4]: 98% |
| CCCCN(c1cc2ccccc2s1)S(=O)(=O)c1cccnc1 [Compound 340, N-(Benzo[b]thiophen-2-yl)-N-(butyl)-pyridin-3-yl-sulfonamide] |  | 52% |  |
| O=S(=O)(c1ccccc1)N(CCF)c1cc2ccccc2s1 [Compound 844, N-(Benzo[b]thiophen-2-yl)-N-(2-fluoro-ethyl)-benzenesulfonamide] |  |  | inhibition at 0.2 µM [3]: 31% |
| O=C(O)c1ccc(S(=O)(=O)N(CC2CCOCC2)c2sc3ccccc3c2Br)cc1 [Compound 440, N-(3-Bromo-benzo[b]thiophen-2-yl)-N-((tetrahydro-2H-pyran-4-yl)methyl)-4-carboxy-benzenesulfonamide] | 14 nM | 84% |  |
| CCCCN(c1sc2ccccc2c1CN(C)C)S(=O)(=O)c1ccc(C(=O)OC)cc1 [Compound 420, N-(3-Dimethylaminomethyl-benzo[b]thiophen-2-yl)-N-(butyl)-4-carbomethoxy-benzenesulfonamide] |  | 48% |  |
| CCCCN(c1sc2ccccc2c1C(C)(C)O)S(=O)(=O)c1ccc(C(C)=O)cc1 [Compound 344, N-(Butyl)-N-(3-(1-hydroxy-1-methyl-ethyl)-benzo[b]thiophen-2-yl)-4-acetyl-benzenesulfonamide] | 12.7 nM | 99% |  |
| CCS(=O)(=O)N(CC1CC1)c1sc2ccccc2c1C(C)O (stereo not shown) [Compound 281, N-(Cyclopropylmethyl)-N-(3-(1-hydroxyethyl)benzo[b]thiophen-2-yl)-ethanesulfonamide] |  | 62% |  |
| Cc1nccc(-c2cccc(S(=O)(=O)N(Cc3ccc(F)c(C(F)(F)F)c3)c3sc4ccccc4c3C)c2)n1 [Compound 353, N-(3-Methyl-benzo[b]thiophen-2-yl)-N-(4-fluoro-3-trifluoromethyl-benzyl)-3-(2-methyl-pyrimidin-4-yl)-benzenesulfonamide] | 9.4 nM | 98% |  |
| CCS(=O)(=O)N(Cc1ccc(OC(F)(F)F)cc1)c1sc2ccccc2c1C [Compound 42, N-(3-Methyl-benzo[b]thiophen-2-yl)-N-(4-trifluoromethoxy-benzyl)-ethanesulfonamide] | 10.6 nM |  | inhibition at 0.5 µM [4]: 100% |
| CCCCN(c1cc2ccccc2s1)S(C)(=O)=O [Compound 382, N-(Benzo[b]thiophen-2-yl)-N-(butyl)-methanesulfonamide] |  | 17% |  |
| CCS(=O)(=O)N(Cc1ccc(F)c(C(F)(F)F)c1)c1sc2ccccc2c1CN(C)C [Compound 346, N-(3-Dimethylaminomethyl-benzo[b]thiophen-2-yl)-N-(4-fluoro-3-trifluoromethyl-benzyl)-ethanesulfonamide] | 43.8 nM | 95% |  |
| Cc1c(N(Cc2ccc(F)c(C(F)(F)F)c2)S(=O)(=O)c2ccc(C(=O)O)cc2)sc2cc(F)ccc12 [Compound 427, N-(6-Fluoro-3-methyl-benzo[b]thiophen-2-yl)-N-(4-fluoro-3-trifluoromethyl-benzyl)-4-carboxy-benzenesulfonamide] | 5 nM | 95% |  |
| CN(C)S(=O)(=O)N(Cc1ccc(F)c(C(F)(F)F)c1)c1cc2ccccc2s1 [Compound 315, N-(Benzo[b]thiophen-2-yl)-N-(4-fluoro-3-trifluoromethyl-benzyl)-N′,N′-dimethlysulfamide] | 64 nM |  | % Inh @ 0.2 (μM) [2]: 99% |
| Cc1c(N(Cc2ccc(F)c(C(F)(F)F)c2)S(=O)(=O)c2cccc(C(=O)O)c2)sc2ccccc12 [Compound 305, N-(3-Methyl-benzo[b]thiophen-2-yl)-N-(4-fluoro-3-trifluoromethyl-benzyl)-3-carboxy-benzenesulfonamide] | 12 nM | 97% |  |
| CN(C)S(=O)(=O)N(Cc1ccc(F)c(C(F)(F)F)c1)c1sc2ccccc2c1Br [Compound 317, N-(3-Bromo-benzo[b]thiophen-2-yl)-N-(4-fluoro-3-trifluoromethyl-benzyl)-N′,N′-dimethlysulfamide] | 17 nM |  | % Inh @ 0.2 (μM) [2]: 102% |
| O=S(=O)(c1cccnc1)N(Cc1ccc(F)c(F)c1)c1cc2ccccc2s1 [Compound 33, N-(Benzo[b]thiophen-2-yl)-N-(3,4-difluoro-benzyl)-pyridine-3-sulfonamide] | 57.4 nM |  | inhibition at 0.5 µM [4]: 100% |

Further lines, with some results ahead:

| IC50 [1] | inhibition at 0.2 µM [2] | Compound | other results |
| --- | --- | --- | --- |
| 23.3 nM | 103% | COC(=O)c1ccc(S(=O)(=O)N(CCC2CC2)c2sc3ccccc3c2C)cc1 [Compound 628, N-(2-Cyclopropyl-ethyl)-N-(3-methyl-benzo[b]thiophen-2-yl)-4-carbomethoxy-benzenesulfonamide] |  |
|  | 19% | CCCCN(c1cc2ccccc2s1)S(=O)(=O)c1ccc(N2CCN(C)CC2)cc1 [Compound 447, N-(Benzo[b]thiophen-2-yl)-N-(butyl)-4-(4-methyl-piperazin-1-yl)-benzenesulfonamide] |  |
| 9 nM |  | CCCCN(c1sc2ccccc2c1Br)S(=O)(=O)c1ccc(C(N)=NO)cc1 [Compound 473, N-(3-Bromo-benzo[b]thiophen-2-yl)-N-(butyl)-4-N-hydroxy-benzamidinesulfonamide] | % Inh @ 0.2 (μM) [2]: 102% |
| 25.3 nM | 101% | Cc1c(N(Cc2cccc(OC(F)(F)F)c2)S(=O)(=O)CCC(=O)O)sc2ccccc12 [Compound 762, N-(3-Methyl-benzo[b]thiophen-2-yl)-N-(3-trifluoromethoxy-benzyl)-2-carboxy-ethanesulfonamide] |  |
| 6.6 nM | 101% | Cc1c(N(CCC2CC2)S(=O)(=O)c2ccc(-c3nnn[nH]3)cc2)sc2ccccc12 [Compound 570, N-(3-Methyl-benzo[b]thiophen-2-yl)-N-(cyclopropyl-ethyl)-4-(1H-tetrazol-5-yl)-benzenesulfonamide] |  |
| 16 nM | 102% | Cc1cc(C(=O)O)sc1S(=O)(=O)N(Cc1ccc(F)c(C(F)(F)F)c1)c1sc2ccccc2c1C [Compound 528, N-(3-Methyl-benzo[b]thiophen-2-yl)-N-(4-fluoro-3-trifluoromethyl-benzyl)-(5-carboxy-3-methyl-thien-2-yl)-sulfonamide] |  |
| 2 nM |  | CCS(=O)(=O)N(Cc1ccc(F)c(C(F)(F)F)c1)c1sc2ccccc2c1[C@H](C)O [Compound 534] | % Inh @ 0.2 (μM) [2]: 102% |
| 65.7 nM | 104% | CCCCN(c1sc2ccccc2c1Br)S(=O)(=O)c1ccc(N(C)C)cc1 [Compound 560, N-(3-Bromo-benzo[b]thiophen-2-yl)-N-(butyl)-4-dimethylamino-benzenesulfonamide] |  |
| 22 nM | 101% | Cc1c(N(Cc2ccc(OC(F)(F)F)cc2)S(=O)(=O)c2ccc(N3CCOCC3)nc2)sc2ccccc12 [Compound 790] |  |
|  | 102% | Cc1c(N(Cc2cc(Cl)ccc2Cl)S(=O)(=O)c2ccc(C(=O)O)cc2)sc2ccccc12 [Compound 520, N-(3-Methyl-benzo[b]thiophen-2-yl)-N-(2,5-dichloro-benzyl)-4-carboxy-benzenesulfonamide] |  |
| 49.3 nM | 94% | COC(=O)c1ccc(S(=O)(=O)N(Cc2ccc(F)c(C(F)(F)F)c2)c2sc3ccccc3c2C(C)C)cc1 [Compound 563, N-(4-Fluoro-3-trifluoromethyl-benzyl)-N-(3-isopropyl-benzo[b]thiophen-2-yl)-4-carbomethoxy-benzenesulfonamide] |  |
| 1.8 nM | 104% | CC(C)c1c(N(Cc2ccc(F)c(C(F)(F)F)c2)S(=O)(=O)c2ccc(C(=O)O)cc2)sc2ccccc12 [Compound 566, N-(4-Fluoro-3-trifluoromethyl-benzyl)-N-(3-isopropyl-benzo[b]thiophen-2-yl)-4-carboxy-benzenesulfonamide] |  |

Reference: patent US9434711B2 (Janssen Pharmaceutica, NV, priority 2007, dated 2016)
